In patent publication US8232299B2, “Phthalimide derivatives that influence cellular vesicular systems, pharmaceutical compositions, and use thereof” (Avidin Kft., priority 2007, dated 2012):

Experiments:
[1] = tested on: TNFα; assay: early (preformed) TNFα secretion of RAW.264.7 macrophages, ELISA; assay type: cell-based, mice
Description: Matured macrophages produce tumor necrosis factor (TNF-alpha or TNFα) in response to bacterial lipopolysaccharide (E. coli LPS, Sigma) stimulation. TNFα production is induced by […] to the toll-like receptor 4 (TLR-4), the lipopolysaccharide binding protein (LBP), and the CD14 receptor. Secretion of the TNFα is biphasic. For one hour after the stimulation macrophages respond with release of preformed TNFα. Meanwhile, the NF-kappaB signaling pathway turns on the TNFα gene transcription reaching maximum after approximately 8 hours.
(§1) In our experiments we investigated the early TNFα secretion of RAW.264.7 matured mice macrophages. This cell line stores large amount of preformed TNFα. […] Culture supernatant was collected and TNFα content was determined by R&D Duoset ELISA kit (detection limit<62.5 pg/ml). […] So the reduced TNFα level was due to inhibition of the release of preformed TNFα and not due to dying of the cells.
In this example two controls (diluent only—ethanol incubated) and four treated samples were analyzed.

[2] = tested on: RAW.264.7 matured mice macrophages; assay: MTS test of vitality / metabolic activity of the macrophages; assay type: cell-based
Procedure: as §1
Effects of compound 3a and compound 3b on TNFα secretion and on NF-kappaB activation could have been based on cytotoxicity as well. To exclude that, we determined the metabolic activity of the cells, which is proportional to the cell number, by MTS test 8 hours after the treatment.

[3] = tested on: TNFα; assay: late phase (transcriptionally induced) TNFα secretion of macrophages, ELISA; assay type: cell-based, mice; details: preformed TNFα washed away after 4 hours, TNFα of next 4 hours; FIG. 3
Procedure: For the detection of late phase TNFα secretion the preformed TNFα, released after LPS induction of the macrophages, was washed away after 4 hours, and the amount of TNFα produced during the next 4 hours was determined by ELISA test. […] Results are depicted in FIG. 3.

[4] = tested on: MCF7 (Human breast adenocarcinoma); assay: cytotoxic effect on breast carcinoma cell line, MTS test, 24 hours; assay type: cell-based; details: 24 hours incubation, in the concentration range tested
Procedure: In these experiments HepG2 (human hepatocellular carcinoma) and MCF7 (Human breast adenocarcinoma) cells were used. They were cultured in the following media: For HepG2 Dulbecco's Modified Eagle Medium (D-MEM) (high glucose) (Gibco BRL, Carlsbad, Calif., USA), penicillin (50 IU/ml)-streptomycin ([…]), 10% fetal bovine serum; for MCF7 (Human breast adenocarcinoma) 1:1 mixture of Dulbecco's Modified Eagle Medium (D-MEM) (high glucose) (Gibco BRL, Carlsbad, Calif., USA) and Nutrient Mixture F-12 Ham (Sigma, St. Louis, Mo., USA), penicillin (50 IU/ml)-streptomycin ([…]), 10% fetal bovine serum. Experiments were performed as described in Example 9. with the difference that the incubation time was 24 hours in this case. After the incubation period MTS test (3-(4,5-dimethylthiazol-2-yl)-5-(3-carboxymethoxyphenyl)-2-(4-sulfophenyl)-2H-tetrazolium) (Promega, Madison, Wis., USA) was performed as described above.

[5] = tested on: human melanoma (HT168M1); assay: subcutaneous melanoma tumor model; assay type: in vivo, CB17/scid mice; details: 40 mg/kg per os, once a day five days per week for 3 weeks from day 7; FIG. 8
Procedure: Slightly anesthetized (diethyl ether narcosis) adult male CB17/scid mice born with immunodeficiency were subcutaneously (s.c.) implanted with 8×10^5 cells from in vitro human melanoma (HT168M1) cultures. After tumor cell inoculation animals were randomly assigned into three groups and their ears were marked. From the 7th day after the tumor cell inoculation mice were treated once a day five days per week for 3 weeks with compound 2 (40 mg/kg), or with compound 3b (40 mg/kg) per os by gavage. Control animals were treated with appropriate dilution of the carrier (DMSO) in a similar manner with similar frequency. Body weight changes were monitored once a week for each animal. When subcutaneous tumor reached palpable size its dimensions were also detected with caliper. Tumor volume was estimated by the formula π/6×a×b^2, where “a” is the longer and “b” is the shorter diameter. 30 days after implantation animals were sacrificed by bleeding in Nembutal (75 mg/kg) anesthesia. Evaluation was based on the mass of the primary tumor.
In this experiment the effect of compound 2 and compound 3b was tested in oral administration at the same dose (40 mg/kg).

SMILES: CCNc1c(F)c(F)c2c(c1F)C(=O)N(c1c(C(C)C)cccc1C(C)C)C2=O [Compound 3b, 2-(2,6-diisopropylphenyl)-5-(ethylamino)-4,6,7-trifluoroisoindole-1,3-dione]
- LPS stimulated TNFα release of the macrophages ([1]; 100 ng/ml LPS, FIG. 2b): reduces the induced TNFα release
- basal TNFα release of the macrophages ([1]; without LPS induction, FIG. 2a): able to reduce the basal TNFα release
- vitality of the cells (MTS test) ([2]; 3 hours after the stimulation with LPS): no cell death was detected
- metabolic activity of the cells (MTS test) ([2]; 8 hours after the treatment): not found to be toxic
- late TNFα secretion of macrophages [3]: inhibited late TNFα secretion of macrophages in a concentration dependent way
- effect on MCF7 cells [4]: weak effect
- effect on growth of the subcutaneous primary tumor (tumor mass) [5]: significantly (p=0.05) reduced tumor size
